According to ChEMBL document CHEMBL1240343, “Transition state analogs of 5'-methylthioadenosine nucleosidase disrupt quorum sensing” (Nat Chem Biol, 2009):
Calls of active or inactive are those of the source. The calls are words filed in the database; no cut-off is given here.

Assays:
[1] = Inhibition of Escherichia coli MTAN
Vibrio cholerae [2] = assay: Antimicrobial activity against Vibrio cholerae N16961 assessed as effect on cell growth up to 1 uM; format: functional, organism-based
Escherichia coli [3] = assay: Antibacterial activity Escherichia coli O157:H7 EDL933 assessed as induction of growth deffect at 0.5 uM after 16 hrs; format: functional, organism-based
Escherichia coli [4] = assay: Antibacterial activity MTAN-deficient Escherichia coli assessed as induction of growth deffect at 0.5 uM after 16 hrs; format: functional, organism-based
[5] = target: 5'-methylthioadenosine/S-adenosylhomocysteine nucleosidase (Escherichia coli O157:H7) (UniProt P0AF14); assay: (§1) Inhibition of Escherichia coli O157:H7 EDL933 MTAN-mediated autoinducer-2 production assessed as inhibition of light induction in quorum-sensing Vibrio harveyi BB120 by luminescence induction assay
Vibrio harveyi = assay: Inhibition of autoinducer-2 production in Vibrio harveyi BB120 assessed as inhibition of light induction by luminescence induction assay; format: functional; conditions: Vibrio harveyi ATCC BAA-1116
Vibrio cholerae [6] = assay: Antibacterial activity against Vibrio cholerae N16961 at 1 uM; format: functional, organism-based
Vibrio cholerae [7] = assay: Antibacterial activity against Vibrio cholerae N16961 at 2.5 uM; format: functional, organism-based
Escherichia coli [8] = assay: Antibacterial activity Escherichia coli O157:H7 EDL933 at 1 uM; format: functional, organism-based
Escherichia coli [9] = assay: Antibacterial activity Escherichia coli O157:H7 EDL933 at 2.5 uM; format: functional, organism-based
Escherichia coli [10] = assay: Inhibition of Escherichia coli O157:H7 EDL933 biofilm production at 1 uM after 24 hrs; format: functional; conditions: O157:H7 EDL933, 24 h
Vibrio cholerae [11] = assay: Inhibition of Vibrio cholerae N16961 biofilm production at 1 uM after 24 hrs; format: functional; conditions: N16961, 24 h
Escherichia coli [12] = assay: Antibacterial activity against Escherichia coli O157:H7 EDL933 at 1 uM after 24 hrs; format: functional, organism-based
Vibrio cholerae [13] = assay: Antibacterial activity against Vibrio cholerae N16961 at 1 uM after 24 hrs; format: functional, organism-based
[14] = target: T1, 5'-methylthioadenosine/S-adenosylhomocysteine nucleosidase (Vibrio cholerae serotype O1 (strain ATCC 39315 / El Tor Inaba N16961), UniProt Q9KPI8); assay: Binding affinity to His-tagged Vibrio cholerae recombinant MTAN expressed in Escherichia coli […]
T1 sequence (Q9KPI8 whole entry): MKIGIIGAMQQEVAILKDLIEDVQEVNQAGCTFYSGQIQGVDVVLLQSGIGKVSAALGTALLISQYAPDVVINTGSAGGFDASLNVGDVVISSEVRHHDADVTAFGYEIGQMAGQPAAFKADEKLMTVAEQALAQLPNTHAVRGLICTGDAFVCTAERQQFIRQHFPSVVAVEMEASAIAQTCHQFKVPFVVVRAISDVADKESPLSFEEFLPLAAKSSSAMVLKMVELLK

Escherichia coli [15] = assay: Ratio of Km to Ki for Escherichia coli MTAN
[16] = target: 5'-methylthioadenosine/S-adenosylhomocysteine nucleosidase (Escherichia coli O157:H7, UniProt P0AF14); assay: as §1
[17] = target: T2, 5'-methylthioadenosine/S-adenosylhomocysteine nucleosidase (Vibrio cholerae serotype O1 (strain ATCC 39315 / El Tor Inaba N16961)) (UniProt Q9KPI8); conditions: 1 uM
T2 sequence (whole entry): T1 sequence (Q9KPI8 whole entry)

[18] = target: T2, 5'-methylthioadenosine/S-adenosylhomocysteine nucleosidase (Vibrio cholerae serotype O1 (strain ATCC 39315 / El Tor Inaba N16961)); conditions: 1 uM; remark: listed apart in the source

Sequence of 5'-methylthioadenosine/S-adenosylhomocysteine nucleosidase (Escherichia coli O157:H7) (P0AF14 whole entry, looked up): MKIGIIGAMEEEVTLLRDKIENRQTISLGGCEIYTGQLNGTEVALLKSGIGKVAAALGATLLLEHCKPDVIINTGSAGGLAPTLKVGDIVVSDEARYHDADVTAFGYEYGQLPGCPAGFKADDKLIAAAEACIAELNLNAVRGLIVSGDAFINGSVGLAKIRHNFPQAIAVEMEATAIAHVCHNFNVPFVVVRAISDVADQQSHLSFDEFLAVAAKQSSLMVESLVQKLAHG
Sequence of 5'-methylthioadenosine/S-adenosylhomocysteine nucleosidase (Escherichia coli O157:H7, UniProt P0AF14) (P0AF14 whole entry): as the sequence (P0AF14 whole entry, looked up) above

Structure (SMILES): CCCCSC[C@H]1CN(Cc2c[nH]c3c(N)ncnc23)C[C@@H]1O
- Kd [1]: 0.3 pM
- Activity (Vibrio cholerae [2]): inactive
- Activity (Escherichia coli [3]): inactive
- Activity (Escherichia coli [4]): inactive
- inhibition [5]: Dose-dependent effect
- inhibition (Vibrio harveyi): inactive
- Activity (Vibrio cholerae [6]): inactive
- Activity (Vibrio cholerae [7]): inactive
- Activity (Escherichia coli [8]): inactive
- Activity (Escherichia coli [9]): inactive
- inhibition at 1 µM (Escherichia coli [10]): 18%
- inhibition at 1 µM (Vibrio cholerae [11]): 71%
- Activity (Escherichia coli [12]): inactive
- Activity (Vibrio cholerae [13]): inactive

Structure (SMILES): Nc1ncnc2c([C@@H]3N[C@H](CSCc4ccccc4)[C@@H](O)[C@H]3O)c[nH]c12
- Kd [14]: 2100 pM

Structure (SMILES): Nc1ncnc2c([C@@H]3N[C@H](CSc4ccc(Cl)cc4)[C@@H](O)[C@H]3O)c[nH]c12
- Kd [14]: 2200 pM

Structure (SMILES): CCSC[C@H]1CN(Cc2c[nH]c3c(N)ncnc23)C[C@@H]1O
- Activity (Vibrio cholerae [2]): inactive

Structure (SMILES): Nc1ncnc2c(CN3C[C@H](CSCc4ccccc4)[C@@H](O)C3)c[nH]c12
- Kd [14]: 64 pM

Structure (SMILES): Nc1ncnc2c(CN3C[C@H](CSc4ccc(Cl)cc4)[C@@H](O)C3)c[nH]c12
- Kd [1]: 0.047 pM
- Ratio (Escherichia coli [15]): 1e+08
- Activity (Vibrio cholerae [2]): inactive
- Kd [14]: 330 pM

Structure (SMILES): CSC[C@H]1CN(Cc2c[nH]c3c(N)ncnc23)C[C@@H]1O
- Kd [1]: 0.2 pM
- Activity (Vibrio cholerae [2]): inactive
- Activity (Escherichia coli [3]): inactive
- Activity (Escherichia coli [4]): inactive
- inhibition [5]: Dose-dependent effect
- IC50 [16]: 600000 pM
- inhibition [17]: Active
- inhibition [18]: Active

Structure (SMILES): CCSC[C@H]1N[C@@H](c2c[nH]c3c(N)ncnc23)[C@H](O)[C@@H]1O
- Kd [14]: 1600 pM

Structure (SMILES): CSC[C@H]1N[C@@H](c2c[nH]c3c(N)ncnc23)[C@H](O)[C@@H]1O
- Kd [14]: 10000 pM
